The source made the active and inactive calls. No cut-off for these calls is given here.
Legend:
MIA PaCa-2 [1] = test: Growth inhibition of human MIAPaCa2 cells assessed as decrease in cell number at 10 uM incubated for 24 hrs in presence of 1 uM OGF by MTS assay relative to control; type: functional
MIA PaCa-2 [2] = test: Growth inhibition of human MIAPaCa2 cells assessed as decrease in cell number at 10 uM incubated for 96 hrs in presence of 1 uM OGF by MTS assay relative to control; type: functional
MIA PaCa-2 [3] = test: Growth inhibition of human MIAPaCa2 cells assessed as decrease in cell number at 1 uM incubated for 72 hrs in presence of 1 uM OGF by MTS assay relative to control; type: functional; details: MIA PaCa-2, 72 h, read-out: GI
MIA PaCa-2 [4] = test: Growth inhibition of human MIAPaCa2 cells assessed as decrease in cell number at 10 uM incubated for 72 hrs in presence of 1 uM OGF by MTS assay relative to control; type: functional
MIA PaCa-2 [5] = test: Growth inhibition of human MIAPaCa2 cells assessed as decrease in cell number at 1 uM incubated for 48 to 96 hrs by MTS assay relative to control; type: functional; design: scale not given: the % may be the effect or the level left
MIA PaCa-2 [6] = test: Growth inhibition of human MIAPaCa2 cells assessed as decrease in cell number at 1 uM incubated for 24 hrs in presence of 1 uM OGF by MTS assay relative to control; type: functional; details: MIA PaCa-2, 24 h, read-out: GI
MIA PaCa-2 [7] = test: Growth inhibition of human MIAPaCa2 cells assessed as decrease in cell number at 1 uM incubated for 48 hrs in presence of 1 uM OGF by MTS assay relative to control; type: functional; details: MIA PaCa-2, 48 h, read-out: GI
MIA PaCa-2 [8] = test: Growth inhibition of human MIAPaCa2 cells assessed as decrease in cell number at 1 uM incubated for 24 to 96 hrs in presence of 1 uM OGF by MTS assay relative to control; type: functional; design: scale not given: the % may be the effect or the level left
MIA PaCa-2 [9] = test: Growth inhibition of human MIAPaCa2 cells assessed as decrease in cell number at 10 uM incubated for 48 hrs in presence of 1 uM OGF by MTS assay relative to control; type: functional
UMSCC1 = test: Growth inhibition of human UM-SCC-1 cells assessed as decrease in cell number at 1 uM by MTS assay relative to control; type: functional, cell-based
MIA PaCa-2 [10] = test: Growth inhibition of human MIAPaCa2 cells assessed as decrease in cell number at 1 uM incubated for 96 hrs by MTS assay relative to control; type: functional

O=c1[nH]cc(F)c(=O)[nH]1 [FLUOROURACIL]
growth inhibition (GI) (MIA PaCa-2 [1]): 21.5% | growth inhibition (GI) (MIA PaCa-2 [2]): 47.4% | inhibition of growth at 1 µM (MIA PaCa-2 [3]): 23.6% | growth inhibition (GI) (MIA PaCa-2 [4]): 39.7% | Activity (MIA PaCa-2 [5]): 11 - 15% | inhibition of growth at 1 µM (MIA PaCa-2 [6]): 13.2% | inhibition of growth at 1 µM (MIA PaCa-2 [7]): 22.2% | Activity (MIA PaCa-2 [8]): 13 - 30% | growth inhibition (GI) (MIA PaCa-2 [9]): 35.7%

NC(=O)[C@H](Cc1ccccc1)NC(=O)[C@H](Cc1ccccc1)NC(=O)[C@@H]1CCCN1C(=O)[C@@H](N)Cc1ccc(O)cc1
growth inhibition (GI) (UMSCC1): inactive | growth inhibition (GI) (MIA PaCa-2 [10]): inactive

CC1(C)SSC(C)(C)[C@@H](NC(=O)[C@@H](N)Cc2ccc(O)cc2)C(=O)NCC(=O)N[C@@H](Cc2ccccc2)C(=O)N[C@H]1C(=O)O
growth inhibition (GI) (UMSCC1): inactive | growth inhibition (GI) (MIA PaCa-2 [10]): inactive

CC(C)C[C@@H](NC(=O)[C@H](Cc1ccccc1)NC(=O)CNC(=O)[C@@H](C)NC(=O)[C@@H](N)Cc1ccc(O)cc1)C(=O)O
growth inhibition (GI) (UMSCC1): inactive | growth inhibition (GI) (MIA PaCa-2 [10]): inactive

Source: ChEMBL document CHEMBL4420060, “Combinatorial therapies for the treatment of neoplasias using the opioid growth factor receptor” (2013)
